Experimental data from patent US20230278972A1, “SUBSTITUTED HALOALKYL SULFONANILIDE HERBICIDES” (FMC Corporation, priority 2020, published 2023).

Tests used:
Assay type in all cases: in vivo
[1] = tested on: Foxtail, Giant (giant foxtail, Setaria faberi); assay: Test A postemergence, Foxtail, Giant; details: Postemergence
How it was run: (§1)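 Directed soil spray at planting gave the preemergence treatment, while foliar application to one- to two-leaf seedlings (2–10 cm) gave the postemergence one; pots held a loam and sand mixture and chemicals were carried in a non-phytotoxic solvent with surfactant.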

[2] = tested on: Ryegrass, Italian (Italian ryegrass, Lolium multiflorum); assay: Test A postemergence, Ryegrass, Italian; details: Postemergence
How it was run: as §1

[3] = tested on: pigweed (Amaranthus retroflexus); assay: Test A postemergence, pigweed; details: Postemergence
How it was run: as §1

[4] = tested on: barnyardgrass (Echinochloa crus-galli); assay: Test A preemergence, barnyardgrass; details: Preemergence; for Plant response rating, Barnyardgrass: 0 to 100 scale (0 no effect, 100 complete control); for Barnyardgrass plant response rating: visual injury on 0 to 100 scale (0 no effect, 100 complete control), approximately 10 days
How it was run: as §1

[5] = tested on: ragweed (common ragweed, Ambrosia artemisiifolia); assay: Test A preemergence, ragweed; details: Preemergence; for Plant response rating, Ragweed: 0 to 100 scale (0 no effect, 100 complete control); for Ragweed plant response rating: visual injury on 0 to 100 scale (0 no effect, 100 complete control), approximately 10 days
How it was run: as §1

kochia (Bassia scoparia) [6] = assay: Test A preemergence, kochia; details: Preemergence; for Plant response rating, Kochia: 0 to 100 scale (0 no effect, 100 complete control); for Kochia plant response rating: visual injury on 0 to 100 scale (0 no effect, 100 complete control), approximately 10 days
How it was run: as §1

corn (Zea mays) = assay: Test A postemergence, corn; details: Postemergence
How it was run: as §1

[7] = tested on: pigweed (Amaranthus retroflexus); assay: Test A preemergence, pigweed; details: for Plant response rating, Pigweed: 0 to 100 scale (0 no effect, 100 complete control); for Pigweed plant response rating: visual injury on 0 to 100 scale (0 no effect, 100 complete control), approximately 10 days
How it was run: (§2)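 Formulated with a surfactant in a non-phytotoxic solvent, compounds are applied to loam–sand pots, either to bare soil immediately after seeding (preemergence) or to seedlings of 2 to 10 cm bearing one to two leaves (postemergence).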

[8] = tested on: wheat (Triticum aestivum); assay: Test A postemergence, wheat; details: Postemergence
How it was run: as §2

kochia (Bassia scoparia) [9] = assay: Test A postemergence, kochia; details: Postemergence
How it was run: as §1

[10] = tested on: galium (catchweed bedstraw, Galium aparine); assay: Test A postemergence, galium; details: Postemergence
How it was run: as §2

[11] = tested on: barnyardgrass (Echinochloa crus-galli); assay: Test A postemergence, barnyardgrass; details: Postemergence
How it was run: as §2

[12] = tested on: blackgrass (Alopecurus myosuroides); assay: Test A postemergence, blackgrass; details: Postemergence
How it was run: as §1

[13] = tested on: Foxtail, Giant (giant foxtail, Setaria faberi); assay: Test A preemergence, Foxtail, Giant; details: Preemergence; for Plant response rating, Foxtail, Giant: 0 to 100 scale (0 no effect, 100 complete control); for Foxtail, Giant plant response rating: visual injury on 0 to 100 scale (0 no effect, 100 complete control), approximately 10 days
How it was run: as §1

[14] = tested on: ragweed (common ragweed, Ambrosia artemisiifolia); assay: Test A postemergence, ragweed; details: Postemergence
How it was run: as §1

[15] = tested on: Ryegrass, Italian (Italian ryegrass, Lolium multiflorum); assay: Test A preemergence, Ryegrass, Italian; details: Preemergence; for Plant response rating, Ryegrass, Italian: 0 to 100 scale (0 no effect, 100 complete control); for Ryegrass, Italian plant response rating: visual injury on 0 to 100 scale (0 no effect, 100 complete control), approximately 10 days
How it was run: as §1

[16] = 31 g ai/ha, visual injury on 0 to 100 scale (0 no effect, 100 complete control), approx. 10 days
[17] = 125 g ai/ha, 0 to 100 scale (0 no effect, 100 complete control)
[18] = 31 g ai/ha, visual injury, approx. 10 days
[19] = 125 g ai/ha, visual injury approx. 10 days, 0 to 100 scale (0 no effect, 100 complete control)
[20] = 500 g ai/ha, visual injury vs untreated controls after approx. 10 days, 0 to 100 scale (0 no effect, 100 complete control)
[21] = 500 g ai/ha, visual injury approx. 10 days, 0 to 100 scale (0 no effect, 100 complete control)
[22] = 125 g ai/ha, visual injury, approx. 10 days

Cc1cc(C)c(C(=O)N2CCC(C#N)CC2)cc1NS(=O)(=O)C(F)(F)F [Compound 162]
Plant response rating, Foxtail, Giant [1, 16]: 10
Plant response rating, Foxtail, Giant [1, 17]: 30
Plant response rating, Ryegrass, Italian [2, 16]: 0
Plant response rating, Ryegrass, Italian [2, 17]: 30
Plant response rating, Pigweed [3, 16]: 50
Plant response rating, Pigweed [3, 17]: 60
Plant response rating, Barnyardgrass [4, 18]: 0
Barnyardgrass plant response rating ([4]; 125 g ai/ha): 60
Plant response rating, Ragweed [5, 18]: 0
Ragweed plant response rating ([5]; 125 g ai/ha): 30
Plant response rating, Kochia (kochia (Bassia scoparia) [6]; [18]): 30
Kochia plant response rating (kochia (Bassia scoparia) [6]; 125 g ai/ha): 40
Plant response rating, Corn (corn (Zea mays); [16]): 20
Plant response rating, Corn (corn (Zea mays); [17]): 20
Plant response rating, Pigweed [7, 18]: 100
Pigweed plant response rating ([7]; 125 g ai/ha): 100
Plant response rating, Wheat [8, 16]: 30
Plant response rating, Wheat [8, 17]: 50
Plant response rating, Kochia (kochia (Bassia scoparia) [9]; [16]): 10
Plant response rating, Kochia (kochia (Bassia scoparia) [9]; [17]): 10
Plant response rating, Galium [10, 16]: 80
Plant response rating, Galium [10, 17]: 100
Plant response rating, Barnyardgrass [11, 16]: 40
Plant response rating, Barnyardgrass [11, 17]: 80
Plant response rating, Blackgrass [12, 16]: 20
Plant response rating, Blackgrass [12, 17]: 20
Plant response rating, Foxtail, Giant [13, 18]: 100
Foxtail, Giant plant response rating ([13]; 125 g ai/ha): 90
Plant response rating, Ragweed [14, 16]: 60
Plant response rating, Ragweed [14, 17]: 60
Plant response rating, Ryegrass, Italian [15, 18]: 40
Ryegrass, Italian plant response rating ([15]; 125 g ai/ha): 70

Cc1cc(C)c(-c2ccnn(C(C)C)c2=O)cc1NS(=O)(=O)C(F)(F)F [Compound 78]
Plant response rating, Foxtail, Giant [1, 19]: 70
Foxtail, Giant plant response rating [1, 20]: 90
Plant response rating, Ryegrass, Italian [2, 19]: 40
Ryegrass, Italian plant response rating [2, 20]: 60
Plant response rating, Pigweed [3, 19]: 0
Pigweed plant response rating [3, 20]: 50
Barnyardgrass plant response rating ([4]; 125 g ai/ha): 90
Plant response rating, Barnyardgrass ([4]; 500 g ai/ha): 100
Ragweed plant response rating ([5]; 125 g ai/ha): 80
Plant response rating, Ragweed ([5]; 500 g ai/ha): 90
Kochia plant response rating (kochia (Bassia scoparia) [6]; 125 g ai/ha): 0
Plant response rating, Kochia (kochia (Bassia scoparia) [6]; 500 g ai/ha): 60
Plant response rating, Corn (corn (Zea mays); [19]): 0
Corn plant response rating (corn (Zea mays); [20]): 50
Pigweed plant response rating ([7]; 125 g ai/ha): 30
Plant response rating, Pigweed ([7]; 500 g ai/ha): 90
Plant response rating, Wheat [8, 19]: 0
Wheat plant response rating [8, 20]: 70
Plant response rating, Kochia (kochia (Bassia scoparia) [9]; [19]): 0
Kochia plant response rating (kochia (Bassia scoparia) [9]; [20]): 20
Plant response rating, Galium [10, 19]: 60
Galium plant response rating [10, 20]: 90
Plant response rating, Barnyardgrass [11, 19]: 40
Barnyardgrass plant response rating [11, 20]: 70
Plant response rating, Blackgrass [12, 19]: 0
Blackgrass plant response rating [12, 20]: 30
Foxtail, Giant plant response rating ([13]; 125 g ai/ha): 100
Plant response rating, Foxtail, Giant ([13]; 500 g ai/ha): 100
Plant response rating, Ragweed [14, 19]: 0
Ragweed plant response rating [14, 20]: 40
Ryegrass, Italian plant response rating ([15]; 125 g ai/ha): 100
Plant response rating, Ryegrass, Italian ([15]; 500 g ai/ha): 100

Cc1cc(Cl)c(C(=O)N(C)C)cc1NS(=O)(=O)C(F)(F)F [Compound 251]
Plant response rating, Foxtail, Giant [1, 17]: 10
Plant response rating, Foxtail, Giant [1, 21]: 80
Plant response rating, Ryegrass, Italian [2, 17]: 30
Plant response rating, Ryegrass, Italian [2, 21]: 80
Plant response rating, Pigweed [3, 17]: 80
Plant response rating, Pigweed [3, 21]: 80
Plant response rating, Barnyardgrass [4, 22]: 20
Barnyardgrass plant response rating ([4]; 500 g ai/ha): 90
Plant response rating, Ragweed [5, 22]: 80
Ragweed plant response rating ([5]; 500 g ai/ha): 80
Plant response rating, Kochia (kochia (Bassia scoparia) [6]; [22]): 90
Kochia plant response rating (kochia (Bassia scoparia) [6]; 500 g ai/ha): 90
Plant response rating, Corn (corn (Zea mays); [17]): 0
Plant response rating, Corn (corn (Zea mays); [21]): 30
Plant response rating, Pigweed [7, 22]: 100
Pigweed plant response rating ([7]; 500 g ai/ha): 100
Plant response rating, Wheat [8, 17]: 40
Plant response rating, Wheat [8, 21]: 70
Plant response rating, Kochia (kochia (Bassia scoparia) [9]; [17]): 40
Plant response rating, Kochia (kochia (Bassia scoparia) [9]; [21]): 60
Plant response rating, Galium [10, 17]: 80
Plant response rating, Galium [10, 21]: 80
Plant response rating, Barnyardgrass [11, 17]: 70
Plant response rating, Barnyardgrass [11, 21]: 70
Plant response rating, Blackgrass [12, 17]: 20
Plant response rating, Blackgrass [12, 21]: 60
Plant response rating, Foxtail, Giant [13, 22]: 50
Foxtail, Giant plant response rating ([13]; 500 g ai/ha): 90
Plant response rating, Ragweed [14, 17]: 70
Plant response rating, Ragweed [14, 21]: 80
Plant response rating, Ryegrass, Italian [15, 22]: 90
Ryegrass, Italian plant response rating ([15]; 500 g ai/ha): 100
